Assay results published in paper PMC5000588, “A Female-Biased Odorant Receptor from Apolygus lucorum (Meyer-Dür) Tuned to Some Plant Odors” (International Journal of Molecular Sciences, 2016).

Target: T1, AlucOR46/Orco (Apolygus lucorum, UniProt A0A1Q1NIJ3)
T1 construct: gene OR39; full-length ORF of AlucOR46 (1185 bp, 394 residues) in pT7Ts, cRNA co-injected with AlucOrco cRNA into Xenopus oocytes; OR/Orco heteromeric channel; with Odorant receptor coreceptor
T1 sequence (A0A1Q1NIJ3 1-394): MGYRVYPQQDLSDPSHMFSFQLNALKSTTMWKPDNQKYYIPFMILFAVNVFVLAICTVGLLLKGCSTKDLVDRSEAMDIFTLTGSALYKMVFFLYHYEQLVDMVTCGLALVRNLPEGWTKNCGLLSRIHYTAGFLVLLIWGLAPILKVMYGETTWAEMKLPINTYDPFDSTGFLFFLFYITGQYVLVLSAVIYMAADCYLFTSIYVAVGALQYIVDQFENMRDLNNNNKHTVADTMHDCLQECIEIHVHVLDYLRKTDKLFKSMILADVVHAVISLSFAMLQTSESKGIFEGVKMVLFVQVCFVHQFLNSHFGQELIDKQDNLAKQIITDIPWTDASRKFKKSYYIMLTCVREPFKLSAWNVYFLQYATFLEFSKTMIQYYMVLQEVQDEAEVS
T1 sequence (V9TQK7 1-471 partner): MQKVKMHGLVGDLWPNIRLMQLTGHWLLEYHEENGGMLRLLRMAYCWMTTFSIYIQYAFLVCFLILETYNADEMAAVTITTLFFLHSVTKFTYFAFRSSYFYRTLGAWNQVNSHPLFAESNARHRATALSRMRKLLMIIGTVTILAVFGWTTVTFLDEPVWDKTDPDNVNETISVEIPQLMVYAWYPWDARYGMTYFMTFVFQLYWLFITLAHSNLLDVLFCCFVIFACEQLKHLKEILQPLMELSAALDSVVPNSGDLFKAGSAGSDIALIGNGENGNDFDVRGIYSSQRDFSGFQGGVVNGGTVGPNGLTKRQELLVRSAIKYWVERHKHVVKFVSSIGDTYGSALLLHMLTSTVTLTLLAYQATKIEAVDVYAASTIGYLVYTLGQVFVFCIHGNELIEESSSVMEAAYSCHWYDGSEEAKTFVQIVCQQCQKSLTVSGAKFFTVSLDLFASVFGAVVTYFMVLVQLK
Experiment: two-electrode voltage clamp, Xenopus oocytes, inward current at a single concentration
Type: cell-based
Details: agonist; 10^−4 M odorant; coexpressed with AlucOrco; 1× Ringer's buffer pH 7.6

SMILES | inward current response at 10^-4 M
C=C(C)[C@@H]1CC=C(C)CC1 [(S)-(−)-Limonene] | Only six compounds: (S)-(−)-Limonene, (R)-(+)-Limonene
C=C(C)[C@H]1CC=C(C)CC1 [(R)-(+)-Limonene] | Only six compounds: (S)-(−)-Limonene, (R)-(+)-Limonene

Target: T1, AlucOR46/Orco
Experiment: two-electrode voltage clamp, Xenopus oocytes, inward current dose-response
Type: cell-based
Details: not given
From the text: two-electrode voltage clamp, Xenopus oocytes, inward current dose-response on AlucOR46/Orco

EC50 [µM] | SMILES
74.4 | CC1(C)[C@H]2CC=C(CO)[C@@H]1C2 [(1R)-(−)-Myrtenol]
13.8 | CCCCCCCO [1-Heptanol]

Continued, compound first:

SMILES | EC50 [µM]
CCC/C=C/C=O [(E)-2-Hexenal] | 37.1
CC/C=C/CCO [(E)-3-Hexenol] | 25.3
